Measurements from ChEMBL document CHEMBL6096664, “Discovery of novel KSP-targeting PROTACs with potent antitumor effects in vitro and in vivo” (Eur J Med Chem, 2025).

Columns and labels:
HCT-116 [1] = experiment: PROTAC activity at VHL-L/KSP in human HCT-116 cells assessed as induction of KSP degradation at 500 nM incubated for 48 hrs by Western blot analysis relative to control; type: cell-based
HCT-116 [2] = experiment: Antiproliferative activity against human HCT-116 cells assessed as inhibition of cell proliferation measured after 72 hrs by CCK8 assay; type: functional, cell-based; conditions: HCT-116, 72 h
[3] = target: Protein cereblon/Kinesin-like protein KIF11 (Homo sapiens, UniProt P52732+Q96SW2); experiment: PROTAC activity at CRBN/KSP in human HCT-116 cells assessed as induction of KSP degradation at 500 nM incubated for 48 hrs by Western blot analysis relative to control; type: cell-based
Sequence of Protein cereblon/Kinesin-like protein KIF11 (Q96SW2 whole entry, looked up, one chain of several): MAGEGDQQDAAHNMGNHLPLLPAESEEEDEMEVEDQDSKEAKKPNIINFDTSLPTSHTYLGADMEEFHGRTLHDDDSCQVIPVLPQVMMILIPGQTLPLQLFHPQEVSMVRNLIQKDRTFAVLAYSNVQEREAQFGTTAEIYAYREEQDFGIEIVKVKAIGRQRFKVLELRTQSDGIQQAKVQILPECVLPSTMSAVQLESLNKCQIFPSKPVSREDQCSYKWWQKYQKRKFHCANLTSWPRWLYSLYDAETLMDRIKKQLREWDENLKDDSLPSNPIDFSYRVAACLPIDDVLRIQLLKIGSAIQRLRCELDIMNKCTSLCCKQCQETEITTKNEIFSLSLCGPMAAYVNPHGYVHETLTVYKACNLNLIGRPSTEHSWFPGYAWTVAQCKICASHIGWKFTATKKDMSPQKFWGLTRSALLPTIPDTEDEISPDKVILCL

[4] = target: T1, Kinesin-like protein KIF11 (Homo sapiens, UniProt P52732); experiment: Inhibition of KSP (unknown origin) ATPase activity preincubated for 30 mins followed by ATP addition and measured after 15 mins by Kinase-Glo Plus reagent based luminescence analysis
T1 sequence (P52732 whole entry): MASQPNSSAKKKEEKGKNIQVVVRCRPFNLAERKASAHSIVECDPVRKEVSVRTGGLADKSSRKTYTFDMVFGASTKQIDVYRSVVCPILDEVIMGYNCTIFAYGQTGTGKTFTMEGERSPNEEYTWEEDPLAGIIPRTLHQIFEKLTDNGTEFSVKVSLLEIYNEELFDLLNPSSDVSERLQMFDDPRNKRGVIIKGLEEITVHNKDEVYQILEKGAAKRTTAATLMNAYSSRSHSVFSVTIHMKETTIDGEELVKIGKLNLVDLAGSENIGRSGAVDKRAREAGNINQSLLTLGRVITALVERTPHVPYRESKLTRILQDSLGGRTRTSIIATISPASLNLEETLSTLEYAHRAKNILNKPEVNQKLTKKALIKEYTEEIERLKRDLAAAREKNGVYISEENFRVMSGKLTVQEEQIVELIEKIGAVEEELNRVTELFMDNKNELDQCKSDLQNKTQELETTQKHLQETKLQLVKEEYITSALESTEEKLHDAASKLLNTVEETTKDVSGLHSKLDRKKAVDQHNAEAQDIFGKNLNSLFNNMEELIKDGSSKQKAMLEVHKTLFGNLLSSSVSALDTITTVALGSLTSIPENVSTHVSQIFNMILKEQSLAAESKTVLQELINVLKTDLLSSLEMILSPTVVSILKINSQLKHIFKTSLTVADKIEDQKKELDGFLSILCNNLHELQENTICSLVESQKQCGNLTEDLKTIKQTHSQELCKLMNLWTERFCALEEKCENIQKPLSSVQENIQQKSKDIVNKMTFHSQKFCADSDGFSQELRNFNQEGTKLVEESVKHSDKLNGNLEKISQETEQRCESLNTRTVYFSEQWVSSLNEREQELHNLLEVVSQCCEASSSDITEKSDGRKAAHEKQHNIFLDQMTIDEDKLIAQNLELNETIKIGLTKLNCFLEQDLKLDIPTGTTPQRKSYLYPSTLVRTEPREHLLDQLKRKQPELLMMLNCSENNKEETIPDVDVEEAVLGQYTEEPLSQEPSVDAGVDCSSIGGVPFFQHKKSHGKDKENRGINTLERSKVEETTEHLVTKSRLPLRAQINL

A549 = experiment: Antiproliferative activity against human A549 cells assessed as inhibition of cell proliferation measured after 72 hrs by CCK8 assay; type: functional, cell-based; conditions: A549, 72 h
MCF7 = experiment: Antiproliferative activity against human MCF7 cells assessed as inhibition of cell proliferation measured after 72 hrs by CCK8 assay; type: functional, cell-based; conditions: MCF7, 72 h
MDA-MB-231 = experiment: Antiproliferative activity against human MDA-MB-231 cells assessed as inhibition of cell proliferation measured after 72 hrs by CCK8 assay; type: functional, cell-based; conditions: MDA-MB-231, 72 h
HCT-116 [5] = experiment: Induction of apoptosis in human HCT-116 cells assessed as viable cells at 100 nM incubated for 48 hrs by Annexin V-FITC/PI staining based flow cytometry analysis (reference value: 94.31 %); type: functional; conditions: read-out: Activity
HCT-116 [6] = experiment: Induction of apoptosis in human HCT-116 cells assessed as early apoptotic cells at 100 nM incubated for 48 hrs by Annexin V-FITC/PI staining based flow cytometry analysis (reference value: 3.02 %); type: functional
HCT-116 [7] = experiment: Induction of apoptosis in human HCT-116 cells assessed as late apoptotic cells at 100 nM incubated for 48 hrs by Annexin V-FITC/PI staining based flow cytometry analysis (reference value: 1.36 %); type: functional
HCT-116 [8] = experiment: Induction of apoptosis in human HCT-116 cells assessed as necrotic cells at 100 nM incubated for 48 hrs by Annexin V-FITC/PI staining based flow cytometry analysis (reference value: 1.31 %); type: functional
HCT-116 [9] = experiment: Induction of cell cycle arrest in human HCT-116 cells assessed as accumulation of cells at G1 phase at 10 nM incubated for 24 hrs by RNase A/propidium iodide staining based flow cytometric analysis (reference value: 93.11 %); type: functional
HCT-116 [10] = experiment: Induction of cell cycle arrest in human HCT-116 cells assessed as accumulation of cells at S phase at 10 nM incubated for 24 hrs by RNase A/propidium iodide staining based flow cytometric analysis (reference value: 2.84 %); type: functional
HCT-116 [11] = experiment: Induction of cell cycle arrest in human HCT-116 cells assessed as accumulation of cells at G2/M phase at 10 nM incubated for 24 hrs by RNase A/propidium iodide staining based flow cytometric analysis (reference value: 4.05 %); type: functional

SMILES	IC50 (HCT-116 [2]) [nM]	Activity [3] [%]	other results
COc1ccc(C2(SC[C@H](N)C(=O)O)c3ccccc3C=Cc3ccccc32)cc1	8.5	0	IC50 [4]: 27.6 nM; IC50 (A549): 262 nM; IC50 (MCF7): 17.5 nM; IC50 (MDA-MB-231): 12.1 nM; viability at 0.1 µM (HCT-116 [5]): 30.7%; Activity (HCT-116 [6]): 31.49%; Activity (HCT-116 [7]): 23.79%; Activity (HCT-116 [8]): 14.06%; Activity (HCT-116 [9]): 66.9%; Activity (HCT-116 [10]): 12.07%; Activity (HCT-116 [11]): 21.03%
COc1ccc(C2(SC[C@H](N)C(=O)NCCCCNc3ccc4c(c3)C(=O)N(C3CCC(=O)NC3=O)C4=O)c3ccccc3C=Cc3ccccc32)cc1 (stereo partly specified)	360	10.6	
COc1ccc(C2(SC[C@H](N)C(=O)NCCOCCNC(=O)COc3cccc4c3C(=O)N(C3CCC(=O)NC3=O)C4=O)c3ccccc3C=Cc3ccccc32)cc1 (stereo partly specified)	37.4	60.1	
COc1ccc(C2(SC[C@H](N)C(=O)NCCOCCOCCOCCNc3cccc4c3C(=O)N(C3CCC(=O)NC3=O)C4=O)c3ccccc3C=Cc3ccccc32)cc1 (stereo partly specified)	81.3	43.5	
COc1ccc(C2(SC[C@H](N)C(=O)NCCNC(=O)COc3cccc4c3C(=O)N(C3CCC(=O)NC3=O)C4=O)c3ccccc3C=Cc3ccccc32)cc1 (stereo partly specified)	313	18.5	
COc1ccc(C2(SC[C@H](N)C(=O)NCCOCCNc3ccc4c(c3)C(=O)N(C3CCC(=O)NC3=O)C4=O)c3ccccc3C=Cc3ccccc32)cc1 (stereo partly specified)	203	25.7	
COc1ccc(C2(SC[C@H](N)C(=O)NCCOCCNc3cccc4c3C(=O)N(C3CCC(=O)NC3=O)C4=O)c3ccccc3C=Cc3ccccc32)cc1 (stereo partly specified)	366	12.8	
COc1ccc(C2(SC[C@H](N)C(=O)NCCOCCOCCNC(=O)COc3cccc4c3C(=O)N(C3CCC(=O)NC3=O)C4=O)c3ccccc3C=Cc3ccccc32)cc1 (stereo partly specified)	42.2	53.2	
COc1ccc(C2(SC[C@H](N)C(=O)NCCOCCOCCNc3ccc4c(c3)C(=O)N(C3CCC(=O)NC3=O)C4=O)c3ccccc3C=Cc3ccccc32)cc1 (stereo partly specified)	235	24.1	
COc1ccc(C2(SC[C@H](N)C(=O)NCCCCCNC(=O)COc3cccc4c3C(=O)N(C3CCC(=O)NC3=O)C4=O)c3ccccc3C=Cc3ccccc32)cc1 (stereo partly specified)	66.8	46.6	
COc1ccc(C2(SC[C@H](N)C(=O)NCCCNC(=O)COc3cccc4c3C(=O)N(C3CCC(=O)NC3=O)C4=O)c3ccccc3C=Cc3ccccc32)cc1 (stereo partly specified)	96.9	42.1	
COc1ccc(C2(SC[C@H](N)C(=O)NCCOCCOCCOCCNC(=O)COc3cccc4c3C(=O)N(C3CCC(=O)NC3=O)C4=O)c3ccccc3C=Cc3ccccc32)cc1 (stereo partly specified)	206	28.3	
COc1ccc(C2(SC[C@H](N)C(=O)NCCCCNC(=O)COc3cccc4c3C(=O)N(C3CCC(=O)NC3=O)C4=O)c3ccccc3C=Cc3ccccc32)cc1 (stereo partly specified)	83.7	43.6	
COc1ccc(C2(SC[C@H](N)C(=O)NCCOCCOCCOCCNc3ccc4c(c3)C(=O)N(C3CCC(=O)NC3=O)C4=O)c3ccccc3C=Cc3ccccc32)cc1 (stereo partly specified)	95.4	40.6	
COc1ccc(C2(SC[C@H](N)C(=O)NCCOCCOCCNc3cccc4c3C(=O)N(C3CCC(=O)NC3=O)C4=O)c3ccccc3C=Cc3ccccc32)cc1 (stereo partly specified)	184	29.1	
COc1ccc(C2(SC[C@H](N)C(=O)NCCCCNc3cccc4c3C(=O)N(C3CCC(=O)NC3=O)C4=O)c3ccccc3C=Cc3ccccc32)cc1 (stereo partly specified)	247	11.2	

The next lines start with results.

IC50 (HCT-116 [2]) [nM]	Activity [3] [%]	SMILES	other results
165		COc1ccc(C2(SC[C@H](N)C(=O)NCCOCCOCCOCCC(=O)N[C@H](C(=O)N3C[C@H](O)C[C@H]3C(=O)NCc3ccc(-c4scnc4C)cc3)C(C)(C)C)c3ccccc3C=Cc3ccccc32)cc1	Activity (HCT-116 [1]): 32.1%
53.8	54.3	COc1ccc(C2(SC[C@H](N)C(=O)NCCCCCCCCNc3ccc4c(c3)C(=O)N(C3CCC(=O)NC3=O)C4=O)c3ccccc3C=Cc3ccccc32)cc1 (stereo partly specified)	
51.3	53.9	COc1ccc(C2(SC[C@H](N)C(=O)NCCCCCCCCCCNc3ccc4c(c3)C(=O)N(C3CCC(=O)NC3=O)C4=O)c3ccccc3C=Cc3ccccc32)cc1 (stereo partly specified)	
130		COc1ccc(C2(SC[C@H](N)C(=O)NCCCCC(=O)N[C@H](C(=O)N3C[C@H](O)C[C@H]3C(=O)NCc3ccc(-c4scnc4C)cc3)C(C)(C)C)c3ccccc3C=Cc3ccccc32)cc1	Activity (HCT-116 [1]): 38.3%
181		COc1ccc(C2(SC[C@H](N)C(=O)NCCCCCCC(=O)N[C@H](C(=O)N3C[C@H](O)C[C@H]3C(=O)NCc3ccc(-c4scnc4C)cc3)C(C)(C)C)c3ccccc3C=Cc3ccccc32)cc1	Activity (HCT-116 [1]): 25.2%
31.6	68.3	COc1ccc(C2(SC[C@H](N)C(=O)NCCCCCCCCCCNC(=O)COc3cccc4c3C(=O)N(C3CCC(=O)NC3=O)C4=O)c3ccccc3C=Cc3ccccc32)cc1 (stereo partly specified)	
93.4	42.3	COc1ccc(C2(SC[C@H](N)C(=O)NCCCCCCNc3cccc4c3C(=O)N(C3CCC(=O)NC3=O)C4=O)c3ccccc3C=Cc3ccccc32)cc1 (stereo partly specified)	
110		COc1ccc(C2(SC[C@H](N)C(=O)NCCOCCC(=O)N[C@H](C(=O)N3C[C@H](O)C[C@H]3C(=O)NCc3ccc(-c4scnc4C)cc3)C(C)(C)C)c3ccccc3C=Cc3ccccc32)cc1	Activity (HCT-116 [1]): 42.2%
145	35.6	COc1ccc(C2(SC[C@H](N)C(=O)NCCCCCCNc3ccc4c(c3)C(=O)N(C3CCC(=O)NC3=O)C4=O)c3ccccc3C=Cc3ccccc32)cc1 (stereo partly specified)	
52.9	52.5	COc1ccc(C2(SC[C@H](N)C(=O)NCCCCCCNC(=O)COc3cccc4c3C(=O)N(C3CCC(=O)NC3=O)C4=O)c3ccccc3C=Cc3ccccc32)cc1 (stereo partly specified)	
40.8	61.5	COc1ccc(C2(SC[C@H](N)C(=O)NCCCCCCCCNc3cccc4c3C(=O)N(C3CCC(=O)NC3=O)C4=O)c3ccccc3C=Cc3ccccc32)cc1 (stereo partly specified)	
158		COc1ccc(C2(SC[C@H](N)C(=O)NCCOCCOCCC(=O)N[C@H](C(=O)N3C[C@H](O)C[C@H]3C(=O)NCc3ccc(-c4scnc4C)cc3)C(C)(C)C)c3ccccc3C=Cc3ccccc32)cc1	Activity (HCT-116 [1]): 34.5%
262		COc1ccc(C2(SC[C@H](N)C(=O)NCCCCCCCCC(=O)N[C@H](C(=O)N3C[C@H](O)C[C@H]3C(=O)NCc3ccc(-c4scnc4C)cc3)C(C)(C)C)c3ccccc3C=Cc3ccccc32)cc1	Activity (HCT-116 [1]): 18.3%
42.3	60.1	COc1ccc(C2(SC[C@H](N)C(=O)NCCCCCCCCCCNc3cccc4c3C(=O)N(C3CCC(=O)NC3=O)C4=O)c3ccccc3C=Cc3ccccc32)cc1 (stereo partly specified)	
